In the supplement of paper PMC5579334:
± gives the standard deviation of the averaged measurements.

Columns and labels:
[1] = test system: HSC2 (primary human Schwann cells); experiment: % inhibition of CellTiter-Glo viability at highest tested concentration (72 h), relative to DMSO and benzethonium chloride controls; higher = more inhibition
In short: (§1)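 MPNST cell lines and primary human Schwann cells were seeded at 750–1000 cells per well into 384-well plates preprinted with each compound at five concentrations in 10-fold steps, then incubated 72 h at 37 °C, 5% CO2. CellTiter-Glo ATP luminescence gave viability, scaled between vehicle and positive-control wells, with duplicates averaged where present. Curves were fitted with a four-parameter logistic model. Percent inhibition refers to the top concentration, while drug sensitivity score and relative IC50, censored at the top concentration, come from these fits.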

[2] = test system: STS26T; experiment: as above
In short: as §1

[3] = test system: HSC1 (primary human Schwann cells); experiment: as above
In short: as §1

[4] = test system: S1507-2; experiment: as above
In short: as §1

[5] = test system: HS-Sch-2; experiment: as above
In short: as §1

[6] = test system: S462; experiment: as above
In short: as §1

[7] = test system: ST8814; experiment: as above
In short: as §1

[8] = test system: YST-1; experiment: as above
In short: as §1

[9] = test system: HS-PSS; experiment: as above
In short: as §1

[10] = test system: HSC2 (primary human Schwann cells); experiment: drug sensitivity score (DSS, CellTiter-Glo viability, 72 h) (DSS (dimensionless)); higher = more sensitive; extreme values may be limits of the assay
In short: as §1

[11] = test system: STS26T; experiment: as above
In short: as §1

[12] = test system: HSC1 (primary human Schwann cells); experiment: as above
In short: as §1

[13] = test system: S1507-2; experiment: as above
In short: as §1

[14] = test system: HS-Sch-2; experiment: as above
In short: as §1

[15] = test system: S462; experiment: as above
In short: as §1

[16] = test system: ST8814; experiment: as above
In short: as §1

[17] = test system: YST-1; experiment: as above
In short: as §1

[18] = test system: HS-PSS; experiment: as above
In short: as §1

[19] = test system: HSC2 (primary human Schwann cells); experiment: drug sensitivity score (DSS, CellTox-Green cytotoxicity, 72 h) (DSS (dimensionless)); higher = more cytotoxic; extreme values may be limits of the assay
In short: (§2)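 For 72 h at 37 °C, MPNST cell lines and primary human Schwann cells were exposed in 384-well plates to five 10-fold compound dilutions. CellTox-Green, added before seeding at a final 1:1000 dilution, gave fluorescence from DNA released by disrupted cells. Signals were scaled to vehicle and positive-control wells, cultures failing plate quality control were left out, and four-parameter logistic fits were applied. Relative IC50 and drug sensitivity score were derived from the fits, with IC50 censored at the top concentration.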

[20] = test system: STS26T; experiment: as above
In short: as §2

[21] = test system: HSC1 (primary human Schwann cells); experiment: as above
In short: as §2

[22] = test system: S1507-2; experiment: as above
In short: as §2

[23] = test system: ST8814; experiment: as above
In short: as §2

[24] = test system: HS-PSS; experiment: as above
In short: as §2

Row | Structure (SMILES) | % inhibition [1] [%] | % inhibition [2] [%] | % inhibition [3] [%] | % inhibition [4] [%] | % inhibition [5] [%] | % inhibition [6] [%] | % inhibition [7] [%] | % inhibition [8] [%] | % inhibition [9] [%] | drug sensitivity score [10] | drug sensitivity score [11] | drug sensitivity score [12] | drug sensitivity score [13] | drug sensitivity score [14] | drug sensitivity score [15] | drug sensitivity score [16] | drug sensitivity score [17] | drug sensitivity score [18] | drug sensitivity score [19] | drug sensitivity score [20] | drug sensitivity score [21] | drug sensitivity score [22] | drug sensitivity score [23] | drug sensitivity score [24]
1 | CC(=O)Nc1ccc(C(=O)Nc2ccccc2N)cc1 [Tacedinaline] (max concentration tested 1000 nM) | 0.407 | 4.09 | 6.93 | 2.24 ± 3.5 | -2.17 | 6.18 ± 0.36 | -2.81 | 9.24 | 0.39 | 0 | 0 | 0 | 0 | 0 | 0 | 0 | 0 | 0 | 0 | 0 | 0 | 0 | 0 | 0
2 | COc1cc2c(cc1-c1c(C)noc1C)ncc1[nH]c(=O)n([C@H](C)c3ccccn3)c12 [I-BET151] (max concentration tested 10000 nM) | 67.2 | 39.3 | 63.4 | 80.9 ± 2.5 | 69.1 | 54.1 ± 0.65 | 69.7 | 63.4 | 58.5 | 7.44 | 3.63 | 7.53 | 8.57 ± 0.91 | 7.97 | 5.52 ± 1.1 | 7.98 | 7.27 | 5.14 | 0 | 0 | 0.0349 | 6.26 ± 2.9 | 3.3 | 0
3 | CC(C)C[C@H](NC(=O)[C@H](Cc1ccccc1)NC(=O)c1cnccn1)B(O)O [Bortezomib] (max concentration tested 1000 nM) | 102 | 102 | 101 | 103.6 ± 0.17 | 101 | 102.5 ± 0.77 | 103 | 100 | 93.5 | 25.7 | 23.7 | 25.6 | 24.458 ± 0.016 | 30 | 27.4 ± 0.87 | 26.3 | 24.2 | 14.4 | 20.1 | 23.5 | 19.8 | 30.1 ± 4.9 | 24.3 | 7.75
4 | O=C(Nc1cccnc1)N1CCC(Cc2cccc(Oc3ccc(C(F)(F)F)cn3)c2)CC1 [PF-3845] (max concentration tested 10000 nM) | 35.3 | 24.2 | 33.5 | 2.03 ± 3.1 | 79 | 20.3 ± 0.84 | 11.5 | 25.5 | 79.6 | 3.19 | 1.18 | 2.77 | 0 | 4.52 | 0.985 ± 0.1 | 0.0881 | 0.86 | 7.9 | 0.053 | 0 | 0 | 0 | 0 | 0
5 | O=C(Nc1c[nH]nc1-c1nc2ccc(CN3CCOCC3)cc2[nH]1)NC1CC1 [AT9283] (max concentration tested 1000 nM) | 83 | 66.9 | 83.1 | 95.6 ± 4.4 | 93.4 | 84.48 ± 0.23 | 92.4 | 67.4 | 40.9 | 10.5 | 5.9 | 10.7 | 10.9 ± 1.9 | 4.99 | 8.755 ± 0.034 | 13 | 6.27 | 3.34 | 5.2 | 8.27 | 4.98 | 8.28 ± 1.4 | 15.5 | 0
6 | O=C(Nc1ccc2[nH]nc(-c3ccncc3)c2c1)[C@@H]1CCN(CC(=O)N2CCN(c3ccc(-c4ncccn4)cc3)CC2)C1 (max concentration tested 10000 nM) | 51.2 | 40.4 | 61.3 | 77.5 ± 2.5 | 66.4 | 97 ± 2.1 | 91.2 | 31.8 | 45.2 | 10.6 | 4.44 | 10.4 | 10.7 ± 1.2 | 8.78 | 20.4 ± 0.4 | 16.7 | 1.98 | 5.75 | 0.0074 | 1.59 | 0 | 9.36 ± 3.5 | 10.8 | 0
7 | O=C(CCBr)N1CCN(C(=O)CCBr)CC1 [Pipobroman] (max concentration tested 10000 nM) | 0.945 | -2.55 | 0.741 | -11.3 ± 2.3 | 9.93 | -17 ± 7.2 | -3.56 | 4.98 | 1.73 | 0 | 0 | 0 | 0 | 0 | 0 | 0 | 0 | 0 | 0 | 0 | 0 | 0 | 0 | 0
8 | COc1cc(OC2CCN(C)CC2)ccc1Nc1ncc2c(n1)n(C1CCCC1)c(=O)n2C [AZ 3146] (max concentration tested 10000 nM) | 54.7 | 62.1 | 53.1 | 87.86 ± 0.87 | 95.6 | 82.8 ± 4.9 | 92.4 | 68.7 | 75.4 | 2.78 | 6.58 | 2.64 | 5.68 ± 1.6 | 8.57 | 9.91 ± 0.79 | 6.15 | 6.64 | 6.35 | 0.0952 | 4.54 | 0 | 2.07 ± 1.8 | 5.94 | 1.72
9 | Cn1c(=O)c(F)c(Nc2ccc(I)cc2F)c2c(=O)n(C[C@@H](O)CO)cnc21 [TAK-733] (max concentration tested 1000 nM) | 56.7 | 40.6 | 60.4 | 64.6 ± 1.8 | 63 | 76.5 ± 2.8 | 83.7 | 14.2 | 48.9 | 6.21 | 6.24 | 6.66 | 7.362 ± 0.071 | 5.75 | 10.3 ± 0.6 | 9.73 | 0.48 | 4.36 | 0 | 0.198 | 0 | 2.13 ± 3 | 5.1 | 0
10 | C[C@@]1(C(=O)Nc2ccc(F)nc2)CCCN1c1nc(Nc2cc(C3CC3)n[nH]2)c2cccn2n1 (max concentration tested 10000 nM) | 96.7 | 64 | 94.8 | 99.4 ± 1.5 | 89.1 | 92.1 ± 1.2 | 93.2 | 74.3 | 87.3 | 16.2 | 8.67 | 14.5 | 14.5 ± 2.5 | 9.41 | 15.5 ± 0.72 | 13.1 | 25.8 | 7.91 | 9.9 | 11.7 | 7.13 | 9.5 ± 0.59 | 13 | 3.23
11 | CC1(COc2ccc3c(c2)ncn3-c2ccc3cccc(N4CCC(N)CC4)c3n2)COC1 [Crenolanib] (max concentration tested 10000 nM) | 85.3 | 95.3 | 84.7 | 95.6 ± 0.82 | 101 | 95.09 ± 0.94 | 95 | 101 | 101 | 5.95 | 6.09 | 5.48 | 7 ± 2.5 | 10.5 | 5.16 ± 0.26 | 8.29 | 5.36 | 4.89 | 3.85 | 5.47 | 3.33 | 10.4 ± 4.5 | 7.03 | 4.69
12 | COc1cc2c(Oc3ccc(NC(=O)C4(C(=O)Nc5ccc(F)cc5)CC4)cc3F)ccnc2cc1OCCCN1CCOCC1 [Foretinib] (max concentration tested 1000 nM) | 53.2 | 48.4 | 56.5 | 58.7 ± 5.1 | 31.7 | 50.2 ± 3 | 67.5 | 52.2 | 20.9 | 3.44 | 3.62 | 3.91 | 5.7 ± 0.45 | 1.15 | 3.22 ± 0.43 | 6.43 | 3.16 | 1.41 | 0 | 4.03 | 0 | 1.26 ± 0.61 | 2.96 | 0.08
13 | CC(C)C(=O)Nc1ccc([N+](=O)[O-])c(C(F)(F)F)c1 [Flutamide] (max concentration tested 10000 nM) | 5.2 | 9.3 | 9.44 | 4.01 ± 0.74 | -3.98 | 5.56 ± 0.56 | 4.3 | -0.22 | 10.5 | 0 | 0 | 0 | 0 | 0 | 0 | 0 | 0 | 0 | 0 | 0 | 0 | 0 | 0 | 0
14 | CS(=O)(=O)CCNCc1ccc(-c2ccc3ncnc(Nc4ccc(OCc5cccc(F)c5)c(Cl)c4)c3c2)o1 [Lapatinib] (max concentration tested 1000 nM) | 5.46 | 10.1 | 7.8 | 2.48 ± 6 | 1.85 | -5.81 ± 6.8 | -2.6 | 22.2 | 6.86 | 0 | 0.0002 | 0 | 0 | 0 | 0 | 0 | 0.63 | 0 | 0 | 0 | 0 | 0 | 0 | 0
